In patent US20150246938A1, “NOVEL OLEFIN DERIVATIVE” (SHIONOGI & CO., LTD., priority 2011, published 2015):
Where two headings read alike, the source gives them in different places.

Legend:
[1] = biological target: T1, recombinant human ACC1 (Homo sapiens, UniProt Q13085); test: Measurement of inhibitory activity on human ACC1 (MALDI-TOF MS, acetyl CoA to malonyl CoA conversion); assay type: biochemical
T1 construct: a cDNA encoding human ACC1 (1-2346) was cloned from human liver cDNA library (BioChain); myc-tag (C); His-tag (C); made in house; host or cells: Sf-9 insect cells (baculovirus, FlashBACGOLD)
Description: Recombinant baculovirus was generated using FlashBACGOLD system (Oxford Expression Technologies) according to the manufacturer's protocol. To express human ACC1, Sf-9 cells were infected with recombinant baculovirus. After infected cells were disrupted, the filtrated lysate was subjected to Ni-affinity chromatography and anion-exchange chromatography. The fractions containing human ACC1 protein were pooled as recombinant human ACC1 solution.
Recombinant human ACC1 and recombinant human ACC2, which were prepared by the method mentioned above, were preincubated with assay buffer solution (50 mM HEPES-KOH (pH 7.4), 10 mM magnesium chloride, 6-10 mM potassium citrate, 4 mM reduced form of glutathione, 1.5 mg/ml bovine serum albumin) for one hour. Then, 0.2 μL of each this invention compound solution (in DMSO) were dispensed to 384-well microplate, 5 μL of the preincubated enzyme solution and 5 μL of substrate solution (50 mM HEPES-KOH (pH 7.4), 1 mM ATP, 0.8 mM acetyl CoA and 25-50 mM potassium bicarbonate) were added to microplate. After centrifugation and shaking, the reaction mixtures were incubated in a humidified box at room temperature for 1 to 3 hours. After the incubation, the enzyme reactions were stopped by the addition of EDTA. Then, after the samples were cocrystallized with CHCA (α-cyano-4-hydroxy cinnamic acid) matrices on MALDI target plate, by using the matrix assist laser […] time-of-flight mass spectrometer (MALDI-TOF MS), samples were measured in reflector negative mode. Deprotonated ions of acetyl CoA (AcCoA) of substrate and malonyl CoA (MalCoA) of the reaction product were detected, then, the conversion rates of acetyl CoA to malonyl CoA was calculated by the intensity of [MalCoA-H]-/(Intensity of [MalCoA-H]-+Intensity of [AcCoA-H]-) using each signal strength. […] In addition, potassium citrate concentrations in assay buffer solution, potassium hydrogen carbonate concentrations in substrate solution and incubation time were adjusted by each lot of enzyme.

[2] = biological target: T2, recombinant human ACC2 (Homo sapiens, UniProt O00763); test: Measurement of inhibitory activity on human ACC2 (MALDI-TOF MS, acetyl CoA to malonyl CoA conversion); assay type: biochemical
T2 construct: a cDNA encoding human ACC2 (27-2458) was cloned from human kidney cDNA library (Clontech); His-tag (N); made in house; host or cells: Sf-9 insect cells (Bac-to-Bac baculovirus)

[3] = recombinant human ACC1, MALDI-TOF MS readout, read-out: 50% inhibitory concentration (1050) on human ACCT

T2 sequence (O00763 27-2458): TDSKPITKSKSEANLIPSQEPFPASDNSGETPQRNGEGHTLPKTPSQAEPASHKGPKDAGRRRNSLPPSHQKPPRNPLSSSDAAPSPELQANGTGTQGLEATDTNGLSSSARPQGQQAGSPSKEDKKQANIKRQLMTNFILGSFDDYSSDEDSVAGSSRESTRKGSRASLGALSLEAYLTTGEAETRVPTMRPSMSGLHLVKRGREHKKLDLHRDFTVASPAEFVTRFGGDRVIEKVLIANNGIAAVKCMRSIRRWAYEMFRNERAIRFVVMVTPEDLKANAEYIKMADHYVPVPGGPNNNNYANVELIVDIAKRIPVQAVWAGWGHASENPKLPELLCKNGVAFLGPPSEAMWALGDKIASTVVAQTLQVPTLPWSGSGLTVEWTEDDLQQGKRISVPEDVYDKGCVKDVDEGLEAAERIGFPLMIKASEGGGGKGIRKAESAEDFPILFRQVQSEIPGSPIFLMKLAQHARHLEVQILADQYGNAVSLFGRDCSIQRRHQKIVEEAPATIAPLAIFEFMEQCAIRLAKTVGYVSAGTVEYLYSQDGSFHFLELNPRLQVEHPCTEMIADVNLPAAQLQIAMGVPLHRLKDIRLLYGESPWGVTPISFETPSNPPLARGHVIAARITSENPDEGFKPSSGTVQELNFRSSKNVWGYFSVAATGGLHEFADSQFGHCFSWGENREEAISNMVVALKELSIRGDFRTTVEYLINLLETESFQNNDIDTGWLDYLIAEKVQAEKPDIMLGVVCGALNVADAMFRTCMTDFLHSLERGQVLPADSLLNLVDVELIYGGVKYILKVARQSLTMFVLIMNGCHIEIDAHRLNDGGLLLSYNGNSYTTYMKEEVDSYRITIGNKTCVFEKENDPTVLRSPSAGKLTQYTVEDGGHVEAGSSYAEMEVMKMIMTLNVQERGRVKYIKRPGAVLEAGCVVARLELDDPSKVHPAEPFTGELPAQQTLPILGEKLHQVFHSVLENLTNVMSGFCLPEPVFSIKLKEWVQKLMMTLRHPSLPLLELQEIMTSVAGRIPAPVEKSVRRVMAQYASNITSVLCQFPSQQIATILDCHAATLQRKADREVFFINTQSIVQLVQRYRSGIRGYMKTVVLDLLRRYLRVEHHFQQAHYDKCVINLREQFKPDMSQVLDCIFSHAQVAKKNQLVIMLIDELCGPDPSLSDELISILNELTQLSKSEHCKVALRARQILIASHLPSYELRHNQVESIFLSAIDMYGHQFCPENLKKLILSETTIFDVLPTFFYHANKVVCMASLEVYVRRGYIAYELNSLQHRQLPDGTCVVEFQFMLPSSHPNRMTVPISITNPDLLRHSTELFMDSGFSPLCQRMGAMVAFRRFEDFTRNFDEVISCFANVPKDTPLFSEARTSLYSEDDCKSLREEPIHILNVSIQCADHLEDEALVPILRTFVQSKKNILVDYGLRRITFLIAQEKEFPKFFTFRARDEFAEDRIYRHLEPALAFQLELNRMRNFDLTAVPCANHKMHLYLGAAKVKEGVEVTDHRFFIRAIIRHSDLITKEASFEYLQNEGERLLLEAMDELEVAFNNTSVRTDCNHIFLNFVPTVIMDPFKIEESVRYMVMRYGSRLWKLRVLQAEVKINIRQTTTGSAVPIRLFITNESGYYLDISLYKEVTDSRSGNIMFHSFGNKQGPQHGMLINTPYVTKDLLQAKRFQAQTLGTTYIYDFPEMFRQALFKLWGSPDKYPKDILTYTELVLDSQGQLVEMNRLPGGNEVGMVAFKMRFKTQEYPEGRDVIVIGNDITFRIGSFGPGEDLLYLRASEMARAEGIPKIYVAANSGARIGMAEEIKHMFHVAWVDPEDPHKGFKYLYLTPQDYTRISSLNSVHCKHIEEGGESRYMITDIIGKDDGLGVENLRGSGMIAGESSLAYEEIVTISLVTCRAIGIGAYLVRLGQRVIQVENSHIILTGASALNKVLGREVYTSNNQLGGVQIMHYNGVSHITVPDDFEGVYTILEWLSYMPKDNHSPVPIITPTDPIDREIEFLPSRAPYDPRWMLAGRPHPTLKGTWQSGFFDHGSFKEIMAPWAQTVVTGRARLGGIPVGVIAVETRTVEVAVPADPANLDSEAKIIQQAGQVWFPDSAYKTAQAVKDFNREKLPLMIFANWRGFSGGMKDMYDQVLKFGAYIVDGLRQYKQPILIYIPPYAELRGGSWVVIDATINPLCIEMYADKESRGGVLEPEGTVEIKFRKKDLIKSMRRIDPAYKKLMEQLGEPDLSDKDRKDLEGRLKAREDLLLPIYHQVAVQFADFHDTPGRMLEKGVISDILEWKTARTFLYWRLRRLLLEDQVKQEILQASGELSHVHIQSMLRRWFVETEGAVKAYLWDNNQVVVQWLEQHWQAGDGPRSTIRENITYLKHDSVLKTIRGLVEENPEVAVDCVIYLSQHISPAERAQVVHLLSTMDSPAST

Structure (SMILES) | IC50 [1, 3] | other results
CC(=O)N[C@@H](C)/C=C/c1cnc(Oc2ccc(OCC3CC3)cc2Cl)s1 [Compound I-1] | > 100 µM | 
CCCc1ccc(Oc2ccc(/C=C/[C@H](C)NC(C)=O)cn2)c(Cl)c1 [Compound I-30] | > 100 µM | 
CCOc1ccc(Cc2ccc(/C=C/[C@H](C)NC(C)=O)cn2)c(Cl)c1 [Compound I-60] |  | IC50 [1]: > 100 µM
C[C@@H](/C=C/c1cnc(Oc2ccc(OCC3CC3)cc2Cl)s1)NC(=O)CC(=O)OC(C)(C)C [Compound I-100] | > 100 µM | 
COC(=O)CCCCC(=O)N[C@@H](C)/C=C/c1cnc(Oc2ccc(OCC3CC3)cc2Cl)s1 [Compound I-130] | > 100 µM | 
C[C@@H](/C=C/c1cnc(Oc2ccc(OCC3CC3)cc2Cl)s1)NC(=O)c1ccnc(N(C)C)c1 [Compound I-160] | > 100 µM | 
COC(=O)N[C@@H](C)/C=C/c1cnc(Oc2ccc(OCC3CC3)cc2Cl)s1 [Compound I-180] | > 100 µM | 
CC(C)NC(=O)c1cc(C(=O)N[C@@H](C)/C=C/c2cnc(Oc3ccc(OCC4CC4)cc3Cl)s2)ccn1 [Compound I-210] | > 100 µM | 
CNC(=O)COc1cc(C(=O)N[C@@H](C)/C=C/c2cnc(Oc3ccc(OCC4CC4)cc3Cl)s2)ccn1 [Compound I-250] | > 100 µM | 
CC(=O)N[C@@H](C)/C=C/c1ccc(Oc2ccc(C(C)(C)C)cc2Cl)nc1 [Compound I-300] | > 100 µM | IC50 [2]: 0.018 µM
CCNC(=O)c1cc(C(=O)N[C@@H](C)/C=C/c2cnn(Cc3ccc(OCC4CC4)c(Cl)c3Cl)c2)ccn1 [Compound I-320] |  | IC50 ([2]; inhibition activity on human ACC2, Table 82, read-out: IC50): 0.23 µM; IC50 [1]: > 100 µM
CCCc1ccc(Oc2ccc(/C=C/[C@H](C)NC(=O)CN)cn2)c(Cl)c1 [Compound I-390] |  | IC50 [2]: 0.54 µM; IC50 [1]: > 100 µM
CC(=O)N[C@@H](C)/C=C/c1ccc(Oc2ccc(-c3ncns3)cc2Cl)nc1 [Compound I-420] | > 100 µM | IC50 [2]: 0.12 µM
CCCc1ccc(Oc2ccc(/C=C/[C@H](C)NC(C)=O)cn2)c(OC)c1 [Compound I-438] |  | IC50 ([2]; inhibition activity on human ACC2, Table 84, read-out: IC50): 0.78 µM; IC50 [1]: > 100 µM
